{
  "source": "patent US20100297145A1",
  "about": "“Apoptosis promoter, cell proliferation inhibitor, prophylactic/therapeutic agent for cancer, screening method for the promoter, inhibitor or agent” (priority 2005, published 2010)",
  "type_in_all_cases": "cell-based, human",
  "key": {"DU145/PCA-1 [1]": {"test_system": "DU145/PCA-1", "assay": "Cell growth of PCA-1-overexpressing cell line with EGF stimulation (MTS reagent)", "settings": "EGF 10 ng/ml, 36 hours, serum-free, pretreatment with ERK inhibitor", "protocol": "(§1) The human prostate cancer cell line DU145 (purchased from ATCC) was cultured in RPMI medium (in the presence of 10% serum) and used. The human PCA-1 gene was cleaved out from a PCA-1 vector, and this was inserted into pIRES/Neo, which is a vector that encodes the neomycin resistance gene (hereinafter pIRES/Neo/PCA-1). […] For control, a clone (DU145/Neo) incorporating an empty vector, and cultured under the same conditions, was used.\nExperiments were performed using the MTS [(3-(4,5-dimethylthiazol-2-yl)-5-(3-carboxymethoxyphenyl)-2-(4-sulphonyl)-2H-tetrazolium, inner salt] reagent (Promega, Tokyo, Japan) in accordance with the attached protocol.\nCell growth for 36 hours under serum-free conditions was examined."}, "DU145/PCA-1 [2]": {"test_system": "DU145/PCA-1", "assay": "Paclitaxel-induced apoptosis quantified by flowcytometry", "protocol": "as §1\nA control cell line (DU145/Neo) and DU145/PCA-1 were stimulated with paclitaxel (100 nM); 48 hours later, apoptosis was quantified using flowcytometry."}, "DU145 [3]": {"test_system": "DU145", "assay": "WST-1 method, growth of DU145 transfected with siRNA", "protocol": "(§2) The human prostate cancer cell line DU145 (purchased from ATCC) was cultured in RPMI1640 medium (in the presence of 10% fetal bovine serum) and used.\n(§3) DU145 was transiently transfected with siRNAs against PCA-1 ([…] (SEQ ID NO:4), […] (SEQ ID NO:5), […] (SEQ ID NO:6)) using DharmaFECT 1 (GE Healthcare Bioscience.). Expression suppression and knockdown effects were confirmed by real-time PCR and PCA-1 quantitative ELISA method. Control siRNA ([…] (SEQ ID NO:7)) was purchased from GE Healthcare Bioscience.\nTwo days after DU145 was transfected with siRNA, the cells were harvested, and 100 μl of the cells were sown to a 96-well plate at 1×10^4/ml. Thereafter, 10 μl of a 1:9 mixture of a 1-methoxy PMS (1-methoxy-5-methylphenazinium.methylsulfate) solution and a WST-1 (2-(4-Iodophenyl)-3-(4-nitrophenyl)-5-(2,4-disulfophenyl)-2H-tetrazolium, monosodium salt) solution was added to each well every 24 hours; 1 hour later, absorbance was measured at 450 nm. As the control wavelength, 630 nm was used. The day of the start of transfection is designated as day 0."}, "DU145 [4]": {"test_system": "DU145", "assay": "Apoptosis analysis (propidium iodide, flowcytometer) of DU145 transfected with siRNA", "protocol": "as §2, §3\nAfter DU145 was transfected with PCA-1 siRNA, the cells were harvested and fixed with ethanol. Thereafter, the cells were stained with propidium iodide, and the ratio of apoptosis cells was analyzed using a flowcytometer."}, "DU145/PCA-1 [5]": {"test_system": "DU145/PCA-1", "assay": "TRAIL-induced apoptosis analyzed by flowcytometry", "settings": "TRAIL 50 ng/ml, 24 hours", "protocol": "as §1\nTRAIL is drawing attention as a new-generation anticancer agent for prostate cancer, and it has been reported that FLIP acts suppressively on the mechanism therefor."}},
  "data": [
    {"molecule": "N#CC(=C(/N)Sc1ccccc1N)/C(C#N)=C(\\N)Sc1ccccc1N", "note": "[U0126]", "values": [
      {"measurement": "effect of pretreatment on EGF-stimulated growth increase of DU145/PCA-1", "setting": "DU145/PCA-1 [1]", "value": "inhibited (cancelled)"},
      {"measurement": "effect on the paclitaxel-induced apoptosis inhibitory effect of PCA-1", "setting": "DU145/PCA-1 [2]; DU145/PCA-1, paclitaxel 100 nM, with ERK inhibitor", "value": "cancelled"}
    ]},
    {"molecule": "CC(=O)O[C@H]1C(=O)[C@@]2(C)[C@H]([C@H](OC(=O)c3ccccc3)[C@]3(O)C[C@H](OC(=O)[C@H](O)[C@@H](NC(=O)c4ccccc4)c4ccccc4)C(C)=C1C3(C)C)[C@]1(OC(C)=O)CO[C@@H]1C[C@@H]2O", "note": "[paclitaxel]", "values": [
      {"measurement": "paclitaxel-induced apoptosis in DU145/PCA-1 compared with control strain (DU145/Neo)", "setting": "DU145/PCA-1 [2]; paclitaxel 100 nM, 48 hours", "value": "significantly inhibited"}
    ]},
    {"molecule": "Control siRNA: Control siRNA (auccgcgcgauaguacgua (SEQ ID NO:7)) purchased from GE Healthcare Bioscience (AUCCGCGCGAUAGUACGUA; listed as RNA, chemistry not given here)", "values": [
      {"measurement": "absorbance relative to the absorbance on day 3 written as 1", "setting": "DU145 [3]; DU145, Day 3", "value": 1},
      {"measurement": "absorbance relative to the absorbance on day 3 written as 1", "setting": "DU145 [3]; DU145, Day 4", "value": 1.99},
      {"measurement": "absorbance relative to the absorbance on day 3 written as 1", "setting": "DU145 [3]; DU145, Day 5", "value": 3.98},
      {"measurement": "absorbance relative to the absorbance on day 3 written as 1", "setting": "DU145 [3]; DU145, Day 6", "value": 7.25},
      {"measurement": "absorbance relative to the absorbance on day 3 written as 1", "setting": "DU145 [3]; DU145, Day 7", "value": 11.91},
      {"measurement": "absorbance relative to the absorbance on day 3 written as 1", "setting": "DU145 [3]; DU145, Day 8", "value": 12.90},
      {"measurement": "growth of DU145 over time (in words)", "setting": "DU145 [3]; DU145 transfected cells, WST-1", "value": "remarkable growth"},
      {"measurement": "ratio of apoptosis cells", "setting": "DU145 [4]; DU145, Day 2", "value": 0.98, "unit": "%"},
      {"measurement": "ratio of apoptosis cells", "setting": "DU145 [4]; DU145, Day 3", "value": 1.96, "unit": "%"},
      {"measurement": "ratio of apoptosis cells", "setting": "DU145 [4]; DU145, Day 4", "value": 5.00, "unit": "%"},
      {"measurement": "ratio of apoptosis cells", "setting": "DU145 [4]; DU145, Day 5", "value": 1.88, "unit": "%"}
    ]},
    {"molecule": "TRAIL: tumor necrosis factor-related apoptosis-inducing ligand (protein, UniProt P50591 1-281, looked up) Tumor necrosis factor ligand …: MAMMEVQGGPSLGQTCVLIVIFTVLLQSLCVAVTYVYFTNELKQMQDKYSKSGIACFLKEDDSYWDPNDEESMNSPCWQVKWQLRQLVRKMILRTSEETISTVQEKQQNISPLVRERGPQRVAAHITGTRGRSNTLSSPNSKNEKALGRKINSWESSRSGHSFLSNLHLRNGELVIHEKGFYYIYSQTYFRFQEEIKENTKNDKQMVQYIYKYTSYPDPILLMKSARNSCWSKDAEYGLYSIYQGGIFELKENDRIFVSVTNEHLIDMDHEASFFGAFLVG", "values": [
      {"measurement": "apoptosis induction in DU145/PCA-1 compared with control (DU145/Neo)", "setting": "DU145/PCA-1 [5]", "value": "significantly inhibited"}
    ]}
  ]
}
